# Reference: ChEMBL document CHEMBL1201862, “PubChem BioAssay data set” (2004)
# Activity calls are given as the source filed them.
# Key:
# [1] = Luminescence Cell-Based Dose Response HTS to Identify Activators of Luciferase Translation or Activity in H4 […] Cells. [Related pubchem assays: 1829 (Project Summary), 1814 (Primary HTS)]; format: functional
# H4 = assay: Luminescence Cell-Based Dose Response HTS to Identify Activators of 5'UTR Stem-Loop Driven Prion Protein mRNA Translation in H4 Neuroglioblastoma Cells. [Related pubchem assays: 1829 (Project Summary), 1814 (Primary HTS)]; format: functional; details: Homo sapiens
# Beta-galactosidase = Beta-galactosidase (Escherichia coli, UniProt Q8VNN2); assay: Dose response counterscreen for EBI2 assay utilizing the enzyme, b-galactosidase.; format: functional
# [2] = molecular target: T1, DNA repair protein RAD52 homolog (Homo sapiens, UniProt P43351); format: functional, biochemical
# T1 sequence (P43351 whole entry): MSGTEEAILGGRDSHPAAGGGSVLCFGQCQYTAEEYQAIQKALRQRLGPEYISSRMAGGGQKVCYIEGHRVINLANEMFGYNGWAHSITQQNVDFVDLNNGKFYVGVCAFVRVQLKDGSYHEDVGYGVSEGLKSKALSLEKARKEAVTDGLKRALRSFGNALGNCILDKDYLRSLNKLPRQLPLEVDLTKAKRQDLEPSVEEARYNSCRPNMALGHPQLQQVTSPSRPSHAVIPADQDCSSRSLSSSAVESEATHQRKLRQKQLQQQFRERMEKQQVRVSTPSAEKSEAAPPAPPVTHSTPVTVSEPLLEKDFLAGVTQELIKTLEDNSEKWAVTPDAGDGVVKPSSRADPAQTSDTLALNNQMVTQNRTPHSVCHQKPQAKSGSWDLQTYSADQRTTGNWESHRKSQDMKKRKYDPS
# [3] = molecular target: DNA dC->dU-editing enzyme APOBEC-3G (Homo sapiens, UniProt Q9HC16); assay: Dose Response confirmation of small molecule APOBEC3G DNA Deaminase Inhibitors via a fluorescence-based single-stranded DNA deaminase assay. [Related pubchem assays (depositor defined):AID493012, AID493028]; format: functional
# Fatty acid synthase [4] = molecular target: T2, Fatty acid synthase (Homo sapiens, UniProt P49327); assay: FAS thioesterase domain inhibitors, dose response, biochemical, kinetic fluorescence intensity (AID 624326); format: functional;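 further: rate of fluorescence rise from hydrolysis of a fluorogenic O-methyl fluorescein ester substrate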
# [5] = molecular target: Eukaryotic translation initiation factor 4E (Mus musculus, UniProt P63073); assay: eIF4E–eIF4G protein interaction inhibitors, dose response, biochemical, TR-FRET (AID 855); format: functional;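 further: potency for disrupting eIF4E binding to eIF4GI seen as loss of FRET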
# Fatty acid synthase [6] = molecular target: T2, Fatty acid synthase; assay: FAS thioesterase domain inhibitors, dose response, biochemical, endpoint fluorescence intensity, uHTS hits (AID 624327); format: functional;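 further: fluorescence from hydrolysis of an O-methyl fluorescein acyl ester substrate by the enzyme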
# Cytochrome P450 2D6 = Cytochrome P450 2D6 (Homo sapiens, UniProt P10635);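 further: CYP2D6 member of a cytochrome P450 panel assay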
# cells = format: functional, cell-based; details: HEK-CNG
# Galanin receptor type 3 = molecular target: T3, Galanin receptor type 3 (Homo sapiens, UniProt O60755); assay: Fluorescence-based cell-based primary high throughput dose response assay to identify antagonists of the Galanin Receptor 3 (GalR3).; format: functional
# T3 sequence (O60755 whole entry): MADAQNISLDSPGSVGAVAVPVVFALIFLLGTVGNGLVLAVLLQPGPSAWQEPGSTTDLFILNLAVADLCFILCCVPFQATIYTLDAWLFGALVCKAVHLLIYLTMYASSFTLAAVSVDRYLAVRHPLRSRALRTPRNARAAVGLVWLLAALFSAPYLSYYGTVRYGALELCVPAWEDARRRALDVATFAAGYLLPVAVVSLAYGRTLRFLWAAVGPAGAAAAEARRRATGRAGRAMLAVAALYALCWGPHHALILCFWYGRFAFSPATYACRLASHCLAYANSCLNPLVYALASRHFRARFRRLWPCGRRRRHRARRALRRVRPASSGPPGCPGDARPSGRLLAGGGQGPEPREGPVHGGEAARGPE
# [7] = inhibitors of HIV Env-driven cell fusion, dose response, cherry-pick (AID 652057); format: functional, cell-based
# [8] = inhibitors of clade B AD8 Env fusion, dose response, cell-based, cherry-pick (AID 652062); format: functional;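 further: luciferase signal from cell-cell fusion driven by HIV-1 clade B AD8 Env; potency is for inhibitors of fusion seen as a drop in luminescence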
# [9] = ZM109 Env clade C HIV-1 fusion inhibitors, dose response, HeLa effector, CEM target cells, luciferase, cherry-pick (AID 652058); format: functional, cell-based
# [10] = Luminescence Cell-Based Dose Confirmation to Identify Activators of 5'UTR Stem-Loop Driven Alpha-Synuclein mRNA Translation in H4 Neuroglioblastoma Cells. [Related pubchem assays: 1829 (Project Summary), 1814 (Primary HTS)]; format: functional
# [11] = Luminescence Cell-Based Dose Response to Identify Activators of Luciferase Translation or Activity in H4-C Neuroglioblastoma Cells. [Related pubchem assays: 1829 (Project Summary), 1814 (Primary HTS)]; format: functional
# [12] = Luminescence Cell-Based Dose Response to Identify Activators of 5'UTR Stem-Loop Driven Prion Protein mRNA Translation in H4-C Neuroglioblastoma Cells. [Related pubchem assays: 1829 (Project Summary), 1814 (Primary HTS)]; format: functional
# Sequence of Beta-galactosidase (Q8VNN2 whole entry): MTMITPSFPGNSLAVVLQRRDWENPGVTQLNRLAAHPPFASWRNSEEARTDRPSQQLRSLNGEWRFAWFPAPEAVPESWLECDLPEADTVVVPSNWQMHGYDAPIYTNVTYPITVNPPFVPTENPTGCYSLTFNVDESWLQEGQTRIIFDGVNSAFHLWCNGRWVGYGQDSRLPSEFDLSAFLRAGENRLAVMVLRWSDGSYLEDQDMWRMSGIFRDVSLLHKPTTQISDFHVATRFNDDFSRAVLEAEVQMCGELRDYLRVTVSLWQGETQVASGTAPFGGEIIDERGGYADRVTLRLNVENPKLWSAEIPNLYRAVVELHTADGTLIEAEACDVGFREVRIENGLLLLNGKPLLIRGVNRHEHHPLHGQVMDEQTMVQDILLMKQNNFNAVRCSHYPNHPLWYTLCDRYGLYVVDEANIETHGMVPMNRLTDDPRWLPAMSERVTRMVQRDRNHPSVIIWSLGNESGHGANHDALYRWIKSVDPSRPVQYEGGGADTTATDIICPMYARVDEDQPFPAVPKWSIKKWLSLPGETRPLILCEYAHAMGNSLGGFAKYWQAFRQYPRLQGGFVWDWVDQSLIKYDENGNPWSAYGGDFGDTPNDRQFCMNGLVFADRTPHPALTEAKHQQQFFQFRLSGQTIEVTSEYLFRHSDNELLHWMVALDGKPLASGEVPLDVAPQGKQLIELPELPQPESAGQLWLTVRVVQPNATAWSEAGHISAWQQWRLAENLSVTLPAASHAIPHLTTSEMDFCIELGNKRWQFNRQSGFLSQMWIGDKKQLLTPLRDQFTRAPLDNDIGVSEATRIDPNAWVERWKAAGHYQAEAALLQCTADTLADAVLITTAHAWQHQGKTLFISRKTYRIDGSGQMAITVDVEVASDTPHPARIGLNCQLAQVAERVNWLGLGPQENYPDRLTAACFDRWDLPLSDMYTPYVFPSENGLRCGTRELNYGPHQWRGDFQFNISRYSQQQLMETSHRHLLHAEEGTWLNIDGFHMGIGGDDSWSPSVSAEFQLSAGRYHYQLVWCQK
# T2 sequence (P49327 whole entry, the tested form may be a part): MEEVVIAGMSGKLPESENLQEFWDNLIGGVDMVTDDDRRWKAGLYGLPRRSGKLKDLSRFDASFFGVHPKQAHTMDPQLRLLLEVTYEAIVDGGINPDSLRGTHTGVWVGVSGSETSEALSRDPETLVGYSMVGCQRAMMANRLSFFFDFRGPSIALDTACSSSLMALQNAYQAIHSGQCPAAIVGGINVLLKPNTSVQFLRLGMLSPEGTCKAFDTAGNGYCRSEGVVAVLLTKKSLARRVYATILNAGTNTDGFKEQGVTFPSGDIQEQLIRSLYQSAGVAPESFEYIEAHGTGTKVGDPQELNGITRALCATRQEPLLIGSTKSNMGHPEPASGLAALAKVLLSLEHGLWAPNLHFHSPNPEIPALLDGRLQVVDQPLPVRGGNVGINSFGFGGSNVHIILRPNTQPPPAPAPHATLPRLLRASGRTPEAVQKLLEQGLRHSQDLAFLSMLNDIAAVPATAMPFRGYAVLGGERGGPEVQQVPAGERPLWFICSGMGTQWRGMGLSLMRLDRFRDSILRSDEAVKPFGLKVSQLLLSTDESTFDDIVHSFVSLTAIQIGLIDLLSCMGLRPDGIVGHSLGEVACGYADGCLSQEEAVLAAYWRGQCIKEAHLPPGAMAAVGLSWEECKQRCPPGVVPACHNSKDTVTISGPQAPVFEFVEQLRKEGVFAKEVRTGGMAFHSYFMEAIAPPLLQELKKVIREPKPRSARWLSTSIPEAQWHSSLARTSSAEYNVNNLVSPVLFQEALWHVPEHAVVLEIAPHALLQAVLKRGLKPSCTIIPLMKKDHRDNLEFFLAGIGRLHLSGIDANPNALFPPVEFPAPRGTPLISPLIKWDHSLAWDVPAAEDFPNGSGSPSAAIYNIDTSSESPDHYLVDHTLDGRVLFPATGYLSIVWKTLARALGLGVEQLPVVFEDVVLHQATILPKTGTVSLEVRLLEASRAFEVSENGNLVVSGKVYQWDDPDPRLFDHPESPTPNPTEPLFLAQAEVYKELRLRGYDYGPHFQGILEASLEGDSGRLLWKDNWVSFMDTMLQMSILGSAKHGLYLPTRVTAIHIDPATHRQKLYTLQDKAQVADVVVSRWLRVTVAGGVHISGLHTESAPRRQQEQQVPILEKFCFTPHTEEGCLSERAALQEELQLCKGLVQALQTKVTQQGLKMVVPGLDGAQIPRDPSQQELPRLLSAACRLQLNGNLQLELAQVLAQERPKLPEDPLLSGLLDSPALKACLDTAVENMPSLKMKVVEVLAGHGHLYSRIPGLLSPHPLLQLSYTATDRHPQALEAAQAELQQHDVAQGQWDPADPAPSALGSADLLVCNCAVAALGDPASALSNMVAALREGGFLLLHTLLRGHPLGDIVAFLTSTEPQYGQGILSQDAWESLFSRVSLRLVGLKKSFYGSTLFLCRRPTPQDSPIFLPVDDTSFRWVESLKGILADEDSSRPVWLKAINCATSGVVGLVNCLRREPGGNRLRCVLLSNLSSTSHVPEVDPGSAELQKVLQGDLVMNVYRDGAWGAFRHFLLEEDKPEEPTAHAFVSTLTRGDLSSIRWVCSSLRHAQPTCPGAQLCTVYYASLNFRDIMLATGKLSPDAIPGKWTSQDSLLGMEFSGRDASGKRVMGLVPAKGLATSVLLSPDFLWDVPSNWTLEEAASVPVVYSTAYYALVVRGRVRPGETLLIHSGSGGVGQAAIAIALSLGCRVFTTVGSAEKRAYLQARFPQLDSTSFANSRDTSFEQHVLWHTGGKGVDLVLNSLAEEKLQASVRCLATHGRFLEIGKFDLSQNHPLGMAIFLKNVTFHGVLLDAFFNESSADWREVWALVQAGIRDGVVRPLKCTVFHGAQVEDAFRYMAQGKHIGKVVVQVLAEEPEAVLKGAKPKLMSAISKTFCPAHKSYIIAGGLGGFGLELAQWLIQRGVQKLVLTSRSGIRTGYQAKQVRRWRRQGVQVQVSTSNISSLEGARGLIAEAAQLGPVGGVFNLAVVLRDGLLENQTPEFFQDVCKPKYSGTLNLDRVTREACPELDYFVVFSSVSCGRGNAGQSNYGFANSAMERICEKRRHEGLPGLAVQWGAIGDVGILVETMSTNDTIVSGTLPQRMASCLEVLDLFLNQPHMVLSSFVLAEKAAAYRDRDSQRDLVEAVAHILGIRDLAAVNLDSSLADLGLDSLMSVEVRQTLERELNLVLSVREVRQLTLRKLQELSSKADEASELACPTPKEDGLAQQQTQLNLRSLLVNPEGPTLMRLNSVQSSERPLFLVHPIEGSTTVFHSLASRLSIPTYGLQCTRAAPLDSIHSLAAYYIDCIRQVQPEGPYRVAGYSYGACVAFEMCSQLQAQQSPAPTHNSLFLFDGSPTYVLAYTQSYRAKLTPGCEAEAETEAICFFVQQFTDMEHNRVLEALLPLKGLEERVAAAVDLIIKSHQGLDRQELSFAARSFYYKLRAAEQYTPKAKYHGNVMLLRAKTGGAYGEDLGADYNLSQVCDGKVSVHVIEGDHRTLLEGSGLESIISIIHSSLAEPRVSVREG
# Sequence of Eukaryotic translation initiation factor 4E (P63073 whole entry, the tested form may be a part): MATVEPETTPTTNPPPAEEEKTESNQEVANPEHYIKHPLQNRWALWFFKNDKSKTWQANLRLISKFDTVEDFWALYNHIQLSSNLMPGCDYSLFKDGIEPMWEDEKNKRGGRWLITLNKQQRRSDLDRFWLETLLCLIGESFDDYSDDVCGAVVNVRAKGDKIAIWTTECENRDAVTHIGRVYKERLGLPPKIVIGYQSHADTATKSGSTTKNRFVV
# Sequence of Cytochrome P450 2D6 (P10635 whole entry): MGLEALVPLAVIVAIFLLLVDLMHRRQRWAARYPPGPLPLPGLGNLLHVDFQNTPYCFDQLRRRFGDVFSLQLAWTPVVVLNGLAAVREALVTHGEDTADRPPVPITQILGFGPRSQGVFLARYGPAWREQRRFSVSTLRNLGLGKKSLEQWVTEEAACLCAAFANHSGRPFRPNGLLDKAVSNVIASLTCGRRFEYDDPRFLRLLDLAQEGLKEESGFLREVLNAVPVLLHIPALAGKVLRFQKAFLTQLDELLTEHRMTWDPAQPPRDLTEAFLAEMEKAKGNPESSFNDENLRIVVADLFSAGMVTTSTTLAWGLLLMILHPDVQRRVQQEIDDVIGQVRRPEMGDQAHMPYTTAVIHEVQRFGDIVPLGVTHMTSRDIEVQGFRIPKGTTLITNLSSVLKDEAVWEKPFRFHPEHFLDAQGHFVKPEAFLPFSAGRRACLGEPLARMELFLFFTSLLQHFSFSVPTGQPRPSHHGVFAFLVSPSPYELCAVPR
# Sequence of DNA dC->dU-editing enzyme APOBEC-3G (Q9HC16 whole entry, the tested form may be a part): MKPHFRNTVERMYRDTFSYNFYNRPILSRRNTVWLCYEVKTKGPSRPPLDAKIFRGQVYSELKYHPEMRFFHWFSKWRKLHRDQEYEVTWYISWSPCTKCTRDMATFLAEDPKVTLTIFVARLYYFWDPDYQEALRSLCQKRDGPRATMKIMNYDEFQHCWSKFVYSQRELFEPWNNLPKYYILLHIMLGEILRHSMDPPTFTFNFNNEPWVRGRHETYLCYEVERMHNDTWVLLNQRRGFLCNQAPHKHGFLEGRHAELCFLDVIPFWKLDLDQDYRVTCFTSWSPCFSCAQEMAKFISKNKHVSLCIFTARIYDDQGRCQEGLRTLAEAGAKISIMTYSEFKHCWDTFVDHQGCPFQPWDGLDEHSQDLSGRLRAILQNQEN
compound,measurement,setting,value
CCN1CCN(C(=O)c2cc3c(s2)-c2c(C)cccc2OC3)CC1,EC50,[1],5.32 µM (active)
same,EC50,H4,9.85 µM (active)
same,IC50,Beta-galactosidase,> 80 µM (inactive)
O=C(/C=C/c1ccc(Cl)cc1)N1CCN(c2ccccn2)CC1,IC50,Beta-galactosidase,> 80 µM (inactive)
COc1cccc(/C=C/C(=O)N2CCN(S(=O)(=O)c3ccccc3)CC2)c1,IC50,Beta-galactosidase,> 80 µM (inactive)
Cc1c(C)n(C)c2ccc(C(=O)NCCCN3CCN(C)CC3)cc12,AC50,[2],7.04 µM (active)
CCS(=O)(=O)c1ccc2oc(Nc3ccc(C(C)C)cc3)nc2c1,IC50,[3],20.7 µM (active)
same,IC50,Fatty acid synthase [4],12.6 µM (active)
same,IC50,[5],> 64 µM (inactive)
same,IC50,Fatty acid synthase [6],22.3 µM (inactive)
CO/C(O)=C1\C(C)=NC2=C(C(=O)CCC2)C1c1cn(Cc2ccc(Cl)cc2Cl)nc1-c1ccccc1 (configuration not stated),AC50,Cytochrome P450 2D6,3.55 µM (inconclusive)
same,EC50,cells,> 29.9 µM (inactive)
same,IC50,Galanin receptor type 3,3.85 µM (active)
COc1ccc(NC(=O)Nc2ccc3c(c2)C(=O)N([C@@H](C)CO)C[C@H](C)[C@H](CN(C)Cc2ccncc2)OCCCC[C@H](C)O3)cc1,AC50,[7],0.541 µM (active)
same,AC50,[8],12.7 µM (active)
same,AC50,[9],0.412 µM (active)
CCN(CC)c1ccc(NC(=O)c2cncc(Br)c2)cc1,EC50,[1],1.48 µM (active)
same,EC50,H4,14.3 µM (active)
same,EC50,[10],0.53 µM (active)
same,EC50,[11],> 12 µM (not active)
same,EC50,[12],> 12 µM (not active)
O=C(c1cc2cc(Cl)ccc2[nH]1)N1CCC2(CC1)OCCO2,IC50,Beta-galactosidase,> 80 µM (inactive)
